In patent US8314123B2, “5, 6, or 7-substituted -3-(hetero) arylisoquinolinamine derivatives and therapeutic use thereof” (Rexahn Pharmaceuticals, Inc., priority 2006, dated 2012):

Tests used:
Assay type in all cases: cell-based
SNB-19 (glioblastoma) = experiment: In vitro cell proliferation assay (SRB), SNB19; conditions: Homo sapiens, SRB method, 96 hours, read-out: Inhibition of cell growth (IC50, μM) SNB19
Method: (§1) Cancer cell lines to determine the effect of 5, 6, or 7-substituted-3-(hetero)arylisoquinolinamine compounds were obtained from the following sources: Human MDA-MB-231 (breast), PC3 (prostate), HCT-15 (colon), HCT116 (colon), OVCAR-3 (ovary), Caki-1 (kidney), PANC-1 (pancreas), SNB-19 (glioblastoma) and SK-MEL-28 (melanoma) from the American Type Culture Collection (ATCC) (Manassas, Va.). PC3, OVCAR-3, SK-MEL-28 and SNB-19 were grown in RPMI1640 medium (Invitrogen, Carlsbad, Calif.) supplemented with 10% fetal bovine serum (“FBS”), 1 mM sodium pyruvate, 10 mM HEPES and 100 U/ml penicillin and 100 μg/ml streptomycin (“P/S”). MDA-MB-231, Caki-1, HCT-15 (colon) and PANC-1 cells were maintained in Dulbecco's modified Eagle's medium (“DMEM”, Invitrogen) supplemented with 10% FBS, P/S and 10 mM HEPES. HCT116 cells were maintained in DMEM supplemented with 10% FBS, P/S and 10 mM HEPES for in vitro cell proliferation assay and in RPMI1640 medium supplemented with 10% FBS, 1 mM sodium pyruvate, 10 mM HEPES and P/S for in vitro cell cycle analysis. All cells were incubated at 37° C. under humidified 5% CO2.
(§2) The growth inhibition of the 5, 6, or 7-substituted-3-(hetero)arylisoquinolinamine derivatives against a variety of human tumor cells was evaluated to study the relative importance of particular substituent groups on the compounds. The 5, 6, or 7-substituted-3-(hetero)arylisoquinolinamine derivatives, prepared as described above, were tested with DMSO as a control.
(§3) The growth inhibition assay of representative 5, 6, or 7-substituted-3-(hetero)arylisoquinolinamine derivatives against human tumor cell lines was performed using the Sulforhodamine B (“SRB”) method (Skehan et al., J. National Cancer Institute, 82: 1107-1112 (1990)). Briefly, exponentially growing tumor cells were seeded into a 96-well plate at a density of 2-3×10^3 cells/well and treated with 5, 6, or 7-substituted-3-(hetero)arylisoquinolinamine compounds the next day. Triplicate wells were used for each treatment. The cells were incubated with the various compounds for 96 hours at 37° C. in a humidified 5% CO2 atmosphere. After 96-hour incubation, cells were fixed with 10% trichloroacetic acid (“TCA”), incubated for 1 hour at 4° C., and washed 3 times with tap water. Subsequently, cells were stained with 0.4% sulforhodamine B in 1% acetic acid for 30 minutes, washed 4 times with 1% acetic acid, and air-dried again. After 5 minutes agitation in 10 mM Tris solution, the absorbance of each well was measured at 530 nm using Benchmark Plus Microplate reader (Bio-Rad Laboratories, Hercules, Calif.).
(§4) To translate the OD530 values into the number of live cells in each well, the OD530 values were compared to those on standard OD530-versus-cell number curves generated for each cell line. The percent survival was calculated using the formula: % Survival=live cell number [test]/live cell number [control]×100
(§5) The IC50 values were calculated by non-linear regression analysis.

MDA-MB-231 (breast) = experiment: In vitro cell proliferation assay (SRB), MDA-MB-231; conditions: Homo sapiens, SRB method, 96 hours, read-out: Inhibition of cell growth (IC50, μM) MDA-MB-231
Method: as §1, §2, §3, §4, §5

human cancer cell lines = experiment: Growth inhibition against the panel of human tumor cell lines (SRB), overall statements; conditions: Table 3 cell lines
Method: as §1, §2, §3, §4, §5
Using QSAR and medicinal chemistry techniques, a large number of compounds, including the compounds shown in Table 1-2 above, were synthesized. The synthesized compounds were screened against at least four cancer cell lines, PANC-1, MDA-MB-231, HCT116 and Caki-1, at approximately 1 μM concentration. Compounds showing activity in at least one of these cell lines were selected for further screening. From these compounds, thirty compounds were selected for further evaluation as broad-spectrum anti-proliferative agents as shown in the following Table 3.

OVCAR-3 (ovary) = experiment: In vitro cell proliferation assay (SRB), OVCAR3; conditions: Homo sapiens, SRB method, 96 hours, read-out: Inhibition of cell growth (IC50, μM) OVCAR3
Method: as §1, §2, §3, §4, §5

SK-MEL-28 (melanoma) = experiment: In vitro cell proliferation assay (SRB), SK-MEL-28; conditions: Homo sapiens, SRB method, 96 hours, read-out: Inhibition of cell growth (IC50, μM) SK-MEL-28
Method: as §1, §2, §3, §4, §5

PC3 (prostate) = experiment: In vitro cell proliferation assay (SRB), PC3; conditions: Homo sapiens; SRB method, 96 hours; read-out: Inhibition of cell growth (IC50, μM) PC3
Method: as §1, §2, §3, §4, §5

PANC-1 (pancreas) = experiment: In vitro cell proliferation assay (SRB), PANC-1; conditions: Homo sapiens, SRB method, 96 hours, read-out: Inhibition of cell growth (IC50, μM) PANC-1
Method: as §1, §2, §3, §4, §5

Caki-1 (kidney) = experiment: In vitro cell proliferation assay (SRB), Caki-1; conditions: Homo sapiens, SRB method, 96 hours, read-out: Inhibition of cell growth (IC50, μM) Caki-1
Method: as §1, §2, §3, §4, §5

HCT116 (colon) = experiment: In vitro cell proliferation assay (SRB), HCT116; conditions: Homo sapiens, HCT-116; SRB method, 96 hours; Table 3; read-out: Inhibition of cell growth (IC50, μM) HCT116
Method: as §1, §2, §3, §4, §5

Row | Structure (SMILES) | IC50 (SNB-19 (glioblastoma)) [µM] | IC50 (MDA-MB-231 (breast)) [µM] | activity in growth inhibition of human cancer cell compared to Compound 23 (human cancer cell lines) | IC50 (OVCAR-3 (ovary)) [µM] | IC50 (SK-MEL-28 (melanoma)) [µM] | IC50 (PC3 (prostate)) [µM] | IC50 (PANC-1 (pancreas)) [µM] | IC50 (Caki-1 (kidney)) [µM] | IC50 (HCT116 (colon)) [µM]
1 | Cc1ccc(Cl)cc1-c1cc2ccc(Cl)cc2c(N)n1 [Compound 10, 7-chloro-3-(5-chloro-2-methylphenyl)isoquinolin-1-amine] | 0.19 | 0.11 | equal or better activity | 0.071 | 0.14 | 0.26 | 0.17 | 0.15 | 0.14
2 | COc1ccc2c(N)nc(-c3ccccc3)cc2c1 [Compound 11, 6-methoxy-3-phenylisoquinolin-1-amine] | 0.63 | 0.34 |  | 0.27 | 0.46 | 0.77 | 0.65 | 0.47 | 0.45
3 | COc1ccc(-c2cc3ccc(N(C)C)cc3c(N)n2)cc1OC.Cl [Compound 15, 3-(3,4-Dimethoxyphenyl)-N^7,N^7-dimethylisoquinoline-1,7-diamine hydrochloride] | 0.25 | 0.15 | equal or better activity | 0.14 | 0.33 | 0.23 | 0.19 | 0.17 | 0.18
4 | COc1ccccc1-c1cc2cc(C)ccc2c(N)n1 [Compound 24, 3-(2-Methoxyphenyl)-6-methylisoquinolin-1-amine] | 1.13 | 0.44 |  | 0.49 | 0.8 | > 3 | 0.93 | 0.35 | 0.67
5 | COc1ccc(-c2cc3cc(C)ccc3c(N)n2)cc1 [Compound 26, 3-(4-Methoxyphenyl)-6-methylisoquinolin-1-amine] | 2.23 | 0.93 |  | 0.79 | 1.8 | 2.98 | 2.27 | 0.75 | 1.36
6 | COc1ccc(-c2cc3cc(C)ccc3c(N)n2)cc1OC [Compound 27, 3-(3,4-Dimethoxyphenyl)-6-methylisoquinolin-1-amine] | 2.15 | 0.66 |  | 0.57 | 1.41 | 2.69 | 1.75 | 0.51 | 0.85
7 | COc1cc(OC)cc(-c2cc3cc(C)ccc3c(N)n2)c1 [Compound 30, 3-(3,5-Dimethoxyphenyl)-6-methylisoquinolin-1-amine] | 0.47 | 0.18 |  | 0.18 | 0.41 | 0.43 | 0.38 | 0.16 | 0.24
8 | Cc1ccc2c(N)nc(-c3ccccc3F)cc2c1 [Compound 33, 3-(2-Fluorophenyl)-6-methylisoquinolin-1-amine] | 1.51 | 0.55 |  | 0.57 | 1.07 | 1.84 | 1.59 | 0.46 | 0.7
9 | Cc1cccc(-c2cc3cc(C)ccc3c(N)n2)c1 [Compound 35, 6-Methyl-3-m-tolylisoquinolin-1-amine] | 0.75 | 0.57 |  | 0.47 | 0.72 | 1.19 | 1.28 | 0.69 | 0.59
10 | COc1ccccc1-c1cc2ccc(C)cc2c(N)n1 [Compound 37, 3-(2-Methoxyphenyl)-7-methylisoquinolin-1-amine] | 0.78 | 0.32 |  | 0.51 | 0.67 | 1.01 | 0.68 | 0.22 | 0.47
11 | COc1cccc(-c2cc3ccc(C)cc3c(N)n2)c1 [Compound 38, 3-(3-Methoxyphenyl)-7-methylisoquinolin-1-amine] | 0.48 | 0.17 |  | 0.24 | 0.41 | 0.42 | 0.47 | 0.14 | 0.21
12 | Cc1ccc2cc(-c3ccccc3F)nc(N)c2c1 [Compound 41, 3-(2-Fluorophenyl)-7-methylisoquinolin-1-amine] | 2.2 | 0.72 |  | 0.91 | 1.62 | 2.76 | 2.14 | 0.59 | 1.22
13 | Cc1cccc(-c2cc3ccc(C)cc3c(N)n2)c1 [Compound 49, 7-Methyl-3-m-tolylisoquinolin-1-amine] | 0.53 | 0.21 |  | 0.29 | 0.5 | 0.71 | 0.69 | 0.44 | 0.28
14 | COc1cc2cc(-c3ccccc3)nc(N)c2cc1OC [Compound 51, 6,7-Dimethoxy-3-phenylisoquinolin-1-amine] | 0.71 | 0.44 |  | 0.27 | 0.75 | 0.58 | 0.67 | 0.59 | 0.52
15 | COc1cc2cc(-c3c(C)cccc3C)nc(N)c2cc1OC [Compound 53, 6,7-Dimethoxy-3-(2,6-dimethylphenyl)isoquinolin-1-amine] | 0.42 | 0.25 |  | 0.16 | 0.63 | 0.68 | 0.54 | 0.53 | 0.79
16 | COc1cc2cc(-c3cccc(C)c3)nc(N)c2cc1OC [Compound 54, 6,7-Dimethoxy-3-m-tolylisoquinolin-1-amine] | 1.56 | 0.79 |  | 0.58 | 1.12 | 2.5 | 2.27 | 1.78 | 2.32
17 | COc1cc(OC)cc(-c2cc3cc(OC)c(OC)cc3c(N)n2)c1 [Compound 55, 6,7-Dimethoxy-3-(3,5-dimethoxyphenyl)isoquinolin-1-amine] | 0.4 | 0.4 |  | 0.19 | 0.69 | 0.72 | 0.7 | 0.54 | 0.77
18 | COc1cc2cc(-c3ccccc3C)nc(N)c2cc1OC [Compound 56, 6,7-Dimethoxy-3-o-tolylisoquinolin-1-amine] | 0.56 | 0.54 |  | 0.38 | 0.91 | 1.25 | 0.83 | 0.67 | 0.78
